Source: patent US7718768B2, “Biologically active peptide [sequence]” (CMS Peptides Patent Holding Company Limited, priority 2001, dated 2010)
Marks after values point to notes of the source that are not given here. No end group written: not given here.

Key:
[1] = tested on: Masugi nephritis rat model; experiment: Masugi nephritis rat model; format: in vivo, Sprague Dawley (SD) rats
Source text: The anti-serum was then exuded and isolated. Whole blood was collected from 15 healthy SD rats. […] Treatment started on the day of induction. […] Adequate drinking water was supplied.

T lymphocyte [2] = experiment: T lymphocyte transformation test (ConA, MTT) on spleen cells of treated mice; format: in vivo, BALB/c mice; design: key: OD of assay wells divided by OD of control wells; settings: peptide 500 μg/kg/day i.p. 15 days; IFN-γ and IL-2 groups 3×10^5 IU/kg/day; X ± SD
Protocol: (§1) The above substances were all dissolved in 0.5 ml saline and injected intraperitoneal (i.p.) for 15 continuous days, once per day.
(§2) Ten mice per group. The day after the last test substance administration, the mice were sacrificed by cervical dislocation. The spleen was isolated aseptically and manually dispersed in cold D-Hank's solution using an injection needle. The dispersed cell suspension was further sieved through a 100 gauge 150 μm diameter stainless steel sieve. After centrifugation at 200 g for 10 minutes, the supernatant was discarded. The cell pellet was re-suspended in 10 volume of Tris-NH4Cl buffer and then kept standing still for 10 minutes at room temperature. The suspended cells were collected by centrifugation at 150 g for 10 minutes. The cells were washed 2-4 times with cold D-Hank's solution by re-suspending and collecting by centrifugation with condition as described above. The washed cells were then diluted to the desired cell densities by RPMI-1640 culture medium, containing 10% fetal bovine serum.
(§3) Spleen cells of density 1×10^6/ml were placed onto a 96 wells cell culture plate, 100 μl/well, three parallel wells each of the assay sample and control sample per mouse. To the assay wells, 100 μl/well ConA of 100 μg/ml in RPMI-1640 was added, and 100 μl/well plain RPMI-1640 was used for the controls. The cells were incubated for 66 hrs at 37° C., 5% CO2. The cells were then pelleted by centrifugation at 150 g for 10 minutes.
50 μl/well MTT of 1 mg/ml in RPMI-1640 was added to the cell pellet and the cells re-suspended by shaking for 2 minutes. The incubation was continued for 4 hours. The supernatant was discarded after centrifugation at 150 g for 10 minutes. 120 μl 40 mM HCl-2-propanol was added to the cell pellet and shaken for 3 minutes. to obtain OD570nm of each well referenced at 630 nm. An ELISA reader was used
Each mouse formed three assay wells and three control wells. The Stimulation Index (SI) of each mouse was obtained by first deriving the average OD of the three parallel wells, then dividing the value of the assay wells by the control wells.

NK cell = NK cell cytotoxicity activity test (YAC-1 target cells, MTT) on spleen cells of treated mice; format: in vivo, BALB/c mice; settings: IFN-γ and IL-2 groups 3×10^5 IU/kg/day, X ± SD
Protocol: as §1, §2
Mice spleen cells were prepared to 4×10^6/ml as described in section 1.1 above. Target cells YAC-1 were brought to log phase and adjusted to 1×10^5/ml. Using a 96 wells cell culture plate, 100 μl mouse spleen cells and 100 μl culture medium were added to the control well containing only the spleen cells; 100 μl target cells and 100 μl culture medium were added to the control well containing only target cells; 100 μl mouse spleen cells and 100 μl target cells were added to the NK activity assay well. Three parallel sets of the above were prepared per mouse.
Samples were centrifuged at 150 g for 10 minutes to collect the cells. The supernatant was discarded and 50 μl/well MTT of 1 mg/ml was added. The reaction mixture was then shaken for 2 minutes, and incubated at 37° C., 5% CO2 for 4 hours. The supernatant was discarded after centrifugation at 150 g for 10 minutes. 120 μl 40 mM HCl-2-propanol was added and shaken for 3 minutes. An ELISA reader was used to obtain OD570nm of each well referenced at 630 nm.

T lymphocyte [3] = experiment: T lymphocyte IL-2 secretion test (HT-2 cell bioassay of ConA supernatant); format: in vivo, BALB/c mice; settings: IFN-γ and IL-2 groups 3×10^5 IU/kg/day, X ± SD
Protocol: as §1, §3
HT-2 cells at log phase were collected by centrifugation at 150 g for 10 minutes, and washed three times with cold Hank's solution by re-suspension and centrifugation. The collected HT-2 cells were re-suspended in RPMI-1640 and incubated at 37° C., 5% CO2 for 30 minutes. The cells were further washed twice with RPMI-1640 by re-suspension and centrifugation, and re-suspended to final concentration of 2×10^5/ml with RPMI-1640.
rIL-2 was diluted to the following concentration with RPMI-1640: 500 IU/ml, 250 IU/ml, 125 IU/ml, 62.5 IU/ml, 31.25 IU/ml, and […].
A 96 well cell culture plate was set up with three parallel wells per combination:
Negative control: 100 μl RPMI-1640+100 μl HT-2 cell suspension
rIL-2 standard: 100 μl rIL-2 solution+100 μl HT-2 cell suspension
Assay well: 100 μl diluted supernatant+100 μl HT-2 cell suspension
The plate was incubated at 37° C., 5% CO2 for 68 hours, then centrifuged at 150 g for 15 minutes and the supernatant removed. 100 μl 0.5 mg/ml MTT in RPMI-1640 without phenolsulfonphthalein was added into each well. After shaking for 3-4 minutes to re-suspend the cells, continue to incubate for another 4 hours. Samples were then centrifuged at 150 g for 15 minutes and the supernatant was removed. To each well, 120 μl 40 mM HCl-2-propanol was added, mixed for 3-4 minutes and OD analyzed at 570 nm, referenced at 630 nm with an ELISA plate reader.
The average OD of the three parallel wells of each dilution was taken and plotted against concentration on a semi-log paper, concentration on the X-axis. The concentration at 50% OD saturation was obtained for both the testing supernatant and rIL-2.

T lymphocyte [4] = tested on: T lymphocyte; design: species or system BALB/c mice; settings: mouse, in vivo, ip
anti-SRBC antibody = experiment: Sheep Red Blood Cell (SRBC) hemolysis test, anti-SRBC antibody formation; format: in vivo, BALB/c mice; settings: SRBC on day 12, IFN-γ and IL-2 groups 3×10^5 IU/kg/day, X ± SD
Protocol: Sheep red blood cells (SRBC) were prepared by collecting blood from cervical vein and put into a sterile flask with glass beads. The flask was shaken for 3 minutes and the blood then mixed with Alsever solution (glucose 2.05 g, NaCl 0.4 g, […] 0.8 g, adjust to 100 ml with distilled water) and stored at 4° C. Immediately before use, samples were centrifuged at 130 g, 5 minutes to collect the SRBC. The cells were washed two times by re-suspension and centrifugation in normal saline. Then the cell pellet was collected by centrifugation at 180 g for 10 minutes and re-suspended in saline to make the final working SRBC suspension, 2% (v/v).
Complement was prepared by adding 10 volumes of fresh Cavy serum into one volume centrifuge packed SRBC, and then gently shaking for 30 minutes at 4° C. The SRBC was removed by centrifugation at 200 g for 10 minutes. 10 volumes of normal saline were added to obtain the working complement solution.
The test substances were administered as described in section 1.1, plus intraperitoneal injection 0.2 ml SRBC per mouse on day 12. On the day after the last test substance administration (day 16), blood was collected from the eye canthus and left at room temperature for one hour for serum exudation. After centrifugation at 200 g for 10 minutes, the serum was diluted by 500 times with normal saline.
To 1 ml diluted mouse serum of each mouse, 0.5 ml SRBC suspension was added. Ice cold. Then 1 ml working complement solution was added and incubated at 37° C. water bath for 10 minutes. Reactions were terminated by ice cold. Samples were then centrifuged at 200 g for 10 minutes to obtain the supernatant.
To 1 ml of this supernatant, 3 ml Drabkin solution was added and left at room temperature for 10 minutes. OD540nm was obtained.
Reference OD540nm was obtained by mixing 0.25 ml SRBC suspension with Drabkin solution to 4 ml and placed at room temperature for 10 minutes before OD540nm was taken. Sample serum index=(OD540nm of test sample[…]reference OD540nm)×500 3. The Effect of Peptides on the Phagocytosis Function of Mononuclear Phagocyte and the Weight of Immune Organ^[8,9].

[5] = immunity organ weight test (thymus gland index, spleen index); format: in vivo, BALB/c mice; settings: IFN-γ and IL-2 groups 3×10^5 IU/kg/day, X ± SD
Protocol: as §1
(§4) One day after the last test substance administration (day 16), the liver, spleen, and thymus gland were separated and blotted dry with filter paper and weighed. The phagocytosis index α was calculated as below: α=(^3√K)(W÷WLS) key: W: body weight WLS: weight of liver plus spleen Thymus gland index(%)=(thymus weight/body weight)×100% Spleen index(%)=(spleen weight/body weight)×100%

mononuclear phagocyte = experiment: carbon particle clearance test, phagocytotic activity of mononuclear phagocyte; format: in vivo, BALB/c mice; design: key: α = (cube root of K)×(body weight ÷ liver+spleen weight); settings: IFN-γ and IL-2 groups 3×10^5 IU/kg/day, X ± SD
Protocol: On the next day after the last test substance administration (day 16), the mice were injected with […] body weight India ink (5 times dilution with normal saline) from the tail vein.
One minute and five minutes after Indian ink injection, 20 μl blood was obtained from the eye can thus with a heparinized tubing. The blood was mixed with 2 ml 0.1% w/v Na2CO3 and then OD680nm obtained. The outline clear index K was calculated by the following formula: K=(lgA1−lgA2)÷(t2−t1) Key: A1: OD680nm at first minute A2: OD680nm at fifth minute t2: 5 minutes […]
as §4

[6] = after three weeks of treatment, peptides 50 μg/kg/day i.p., hydrocortisone 3.3 mg/kg/day i.p.
[7] = peptide 0.5 μg/kg/day i.p. 15 days
[8] = peptide 5 μg/kg/day i.p. 15 days
[9] = peptide 50 μg/kg/day i.p. 15 days
[10] = peptide 500 μg/kg/day i.p. 15 days

C[C@]12CCC(=O)C=C1CC[C@@H]1[C@@H]2[C@@H](O)C[C@@]2(C)[C@H]1CC[C@]2(O)C(=O)CO [hydrocortisone, Hydrocortisone, reference compound]
Serum creatinine level [1, 6]: 239 ± 107 µmol/L
growth rate of treated nephritis rats ([1]; peptides 50 μg/kg/day i.p., hydrocortisone 3.3 mg/kg/day i.p.): slower growth rate than normal

LGMEACGIHETTY [CMS012]
stimulation index (T lymphocyte transformation) (T lymphocyte [2]): 1.6 ± 0.2
NK cell cytotoxic activity (NK cell activity index) (NK cell; [7]): 77 ± 6 %
NK cell cytotoxic activity (NK cell activity index) (NK cell; [8]): 85 ± 7 %
NK cell cytotoxic activity (NK cell activity index) (NK cell; [9]): 40 ± 9 %
activity of T lymphocyte in secreting IL-2 (T lymphocyte [3]; [7]): 59 ± 13 IU
activity of T lymphocyte in secreting IL-2 (T lymphocyte [3]; [8]): 65 ± 16 IU
activity of T lymphocyte in secreting IFN (T lymphocyte [4]): 86 ± 9 IU
anti-SRBC antibody formation (sample serum index) (anti-SRBC antibody; [8]): 81 ± 22*^@ Unit
anti-SRBC antibody formation (sample serum index) (anti-SRBC antibody; [9]): 50 ± 14* Unit
anti-SRBC antibody formation (sample serum index) (anti-SRBC antibody; [10]): 141 ± 21*^@^ Unit
weight of thymus gland (thymus gland index) [5, 7]: 0.22 ± 0.06*^ %
weight of thymus gland (thymus gland index) [5, 8]: 0.27 ± 0.06*^@^ %
weight of thymus gland (thymus gland index) [5, 9]: 0.26 ± 0.02*^@^ %

Tyr Ser Phe (YSF; listed as Sus scrofa) [CMS022]
NK cell cytotoxic activity (NK cell activity index) (NK cell; [7]): 73 ± 11 %
activity of T lymphocyte in secreting IL-2 (T lymphocyte [3]; [7]): 109 ± 14*^@^ IU
activity of T lymphocyte in secreting IFN (T lymphocyte [4]): 145 ± 13*^@^ IU
anti-SRBC antibody formation (sample serum index) (anti-SRBC antibody; [9]): 110 ± 16*^@^ Unit
anti-SRBC antibody formation (sample serum index) (anti-SRBC antibody; [10]): 68 ± 31* Unit
phagocytotic index (mononuclear phagocyte; [10]): 7.4 ± 0.6*^@^
weight of thymus gland (thymus gland index) [5, 7]: 0.21 ± 0.06 %
weight of thymus gland (thymus gland index) [5, 8]: 0.25 ± 0.04*^@^ %
weight of thymus gland (thymus gland index) [5, 9]: 0.30 ± 0.03*^@^ %
weight of thymus gland (thymus gland index) [5, 10]: 0.26 ± 0.05*^@^ %

VGMGEKDSY [CMS018]
anti-SRBC antibody formation (sample serum index) (anti-SRBC antibody; [7]): 3 ± 1* Unit
anti-SRBC antibody formation (sample serum index) (anti-SRBC antibody; [10]): 66 ± 16* Unit
phagocytotic index (mononuclear phagocyte; [8]): 6.7 ± 1.2
weight of thymus gland (thymus gland index) [5, 7]: 0.20 ± 0.03 %
weight of thymus gland (thymus gland index) [5, 8]: 0.24 ± 0.04*^@^ %
weight of thymus gland (thymus gland index) [5, 9]: 0.23 ± 0.02*^@^ %
urine protein level ([1]; Week 1, 24 hours urine, peptides 50 μg/kg/day i.p., hydrocortisone 3.3 mg/kg/day i.p.): 7.0 ± 3.7 mg
urine protein level ([1]; Week 2, 24 hours urine, peptides 50 μg/kg/day i.p., hydrocortisone 3.3 mg/kg/day i.p. (halved after first week)): 5.5 ± 7.9 mg
Serum creatinine level [1, 6]: 67 ± 1 µmol/L
spleen index [1, 6]: 3.3 ± 0.8 ×10^−3
renal pathological microscopic examination ([1]; peptides 50 μg/kg/day i.p. 3 weeks, 6 heaviest kidneys per group): all pathological parameters of all rats were normal
